The text below walks through data of patent publication US5837706A, “Drug for neuroprotection” (Daiichi Pharmaceutical Co., Ltd., priority 1993, dated 1998).

For test [1], the system named is delayed neuronal cell death. As to conditions: Kogure et al. 1990; cited from earlier work.
Test [2] deals with hippocampal calmodulin. Kind of test: Effect on intracellular localization of hippocampal calmodulin in hippocampal homogenate (radioimmunoassay). The class given is biochemical, gerbil. As to conditions: for effect on the behavior of calmodulin in the presence of EGTA / Calmodulin Content, Membrane Fraction / Calmodulin Content, Soluble Fraction: 1 mM EGTA; for Calmodulin Content, Membrane Fraction / Calmodulin Content, Soluble Fraction: hippocampal homogenate, 37° C., 30 minutes, 1 mM CaCl2, or 1 mM CaCl2 + 10 μM compound A; for Calmodulin Content, Membrane Fraction: control 8.8 ± 0.25; for Calmodulin Content, Soluble Fraction: control 4.5 ± 0.13. As to the method: The hippocampus of a gerbil was homogenized with 20 mM tris buffer (pH 7.5) containing 0.1 mM leupeptin, 0.1 mM PMSF and 0.01 mg/ml of aprotinin. […] The precipitate was solubilized with 0.1% Lubrol PX. Then the calmodulin contents in the soluble fraction and the membrane fraction were determined by radioimmunoassay.

Test [3] has as its system hippocampal calmodulin. Kind of test: Effect on intracellular localization of hippocampal calmodulin in cerebral ischemic gerbil (radioimmunoassay). The class given is in vivo. As to conditions: for increase in the calmodulin content in the membrane fraction / translocation of calmodulin after cerebral ischemia: cerebral ischemic model of gerbil, 100 mg/kg orally, 24 hours after ischemia. As to the method:
Both common carotid arteries of a gerbil were ligated for 10 minutes. One hour and 24 hours after allowing the blood stream to flow again, the calmodulin content in the hippocampus was determined by radioimmunoassay. The compound A (100 mg/kg) was suspended in 0.5% methylcellulose and orally administered to the animal 1 hour before cerebral ischemia.

Test [4] addresses T1, calmodulin-depending phosphodiesterase (CaM-PDE) / calmodulin (Bos taurus, UniProt P62157).
T1 construct: calmodulin (CaM, from bovine brain); from tissue; host or cells: bovine brain
Kind of test: Calmodulin inhibition effect: inhibition of calmodulin-depending phosphodiesterase (PDE). The class given is biochemical, bovine. The protocol:
The calmodulin inhibition effect of a compound was evaluated by using its effect of inhibiting calmodulin-depending phosphodiesterase (PDE) as an index. […] After ceasing the reaction by heating in a boiling water bath for 1 minute, snake venom (1 mg/ml) was added thereto and the resulting mixture was reacted at 30° C. for 10 minutes to thereby convert 5'-GMP formed by PDE into guanosine. Next, the unreacted cGMP was adsorbed by an ion exchange resin (AGI-X8). Subsequently, the mixture was centrifuged and the radioactivity of the supernatant was measured with a liquid scintillation counter.

For test [5], the system named is fodrin. Kind of test: Change in fodrin in cerebral ischemic model (western blotting). The conditions noted are these: cerebral ischemic model of gerbil; 100 mg/kg 1 hour before ischemia, evaluated 48 hours thereafter. Type of test: in vivo. As to the method: Both common carotid arteries of a gerbil were ligated for 10 minutes to thereby prepare a cerebral ischemic model. Four, 24 and 48 hours after allowing the blood stream to flow again, the hippocampus was taken out and homogenized with 20 mM tris buffer (pH 7.5) containing 0.1 mM leupeptin, 0.1 mM PMSF and […]. After centrifuging at 10,000×g for 30 minutes, proteins in the supernatant were separated by SDS-PAGE. Then fodrin and breakdown products thereof were identified by the same method as the one described in Pharmacological Example 3. The compound B (100 mg/kg) was administered 1 hour before cerebral ischemia and evaluated 48 hours thereafter. Fodrin breakdown products were little detected from the normal gerbil. In the case of the cerebral ischemic model, on the other hand, breakdown products appeared 4 hours after allowing the blood stream to flow again and similar bands were observed after 48 hours.

The subject of test [6] is hippocampal CA1 neuronal cells. Kind of test: Change in hippocampal neuronal cells in cerebral ischemic model. Type of test: in vivo, gerbil. As to conditions: for Hippocampal Neuronal Cell Density: 100 mg/kg orally 1 hour after 5 min ischemia, CA1, 7 days, n = 9-10, normal 194 ± 6.1, ischemia 9 ± 1.3; for protective effect on neuronal cells / suppression of neuronal cell death: cerebral ischemia, gerbil, 100 mg/kg orally 1 hour after ischemia. As to the method: When transient cerebral ischemia was loaded to a gerbil, necrosis of hippocampal cells was observed from several days thereafter. This change is called delayed neuronal cell death. Cerebral ischemia was loaded to a gerbil for 5 minutes. Seven days thereafter, the animal was sacrificed and the neuronal cells remaining in the hippocampal CA1 region were counted. Most of the hippocampal CA1 cells died due to the cerebral ischemia.

The subject of test [7] is fodrin. Kind of test: Effect of calcium ion on breakdown of cytoskeltal protein fodrin in hippocampal homogenate (western blotting). The class given is biochemical, gerbil. As to conditions: 1 mM CaCl2 or 1 mM EGTA, 37° C., 1 hour. The protocol:
The hippocampus taken out from a gerbil was homogenized with 20 mM tris buffer (pH 7.5). […] Then the homogenate was centrifuged at 10,000×g for 30 minutes. After separating proteins contained in the supernatant fraction by SDS-PAGE, the proteins were identified by western blotting with the use of a fodrin antibody (rabbit anti α-Spectrin) and a calmodulin antibody (sheep anti-bovine calmodulin).
Background: A western blot detects proteins with antibodies after separation by electrophoresis.

Test [8] deals with fodrin. As to conditions: Seubert et al., Synapse 1987; cited from earlier work.
Setting [9] is: 100 mg/kg orally 1 hour before 10 min ischemia, 24 hrs after ischemia, n = 10-12.

The pIC50 is the IC50 on a negative log10 scale, so that one unit is a factor of ten. A low value points to a large IC50.

pIC50: −log10 of the molar value. Entries after “also recorded” stand apart in the source; their conditions may differ. Where two headings read alike, the source gives them in different places.

Consider `NCCCCCCNS(=O)(=O)c1cccc2c(Cl)cccc12` [W-7, reference compound], for which the “effect of suppressing delayed neuronal cell death” value in test [1] is on record as “no effect”. Further, the “effect on the behavior of calmodulin in the presence of EGTA” value in test [2] was “no effect”.

Turning to `COc1cc2c(CCN3CCN(c4cccc(Cl)c4C)CC3)nn(Cc3c[nH]cn3)c2cc1OC` [compound B], in test [3], the “increase in the calmodulin content in the membrane fraction / translocation of calmodulin after cerebral ischemia” value is “suppress”. In addition, the selectivity for calmodulin entry in test [4] is recorded as “high selectivity for calmodulin”. The pIC50 in test [4] (pH 7.5, 1 mM CaCl2, 30° C., 10 minutes) is 5.26. In test [5], the “fodrin breakdown products due to cerebral ischemia” value is on record as “scarcely detected; also recorded: suppress”. Moreover, in test [6], the “Hippocampal Neuronal Cell Density” value was 131 ± 21.2 /mm and the “protective effect on neuronal cells / suppression of neuronal cell death” value is reported as “a protective effect on neuronal cells was clearly observed; also recorded: suppress neuronal cell death”.

In the case of `[Ca+2].[Cl-].[Cl-]` [CaCl2, calcium chloride, reference compound], the “calmodulin content in the membrane fraction, change in words” value in test [2] (1 mM calcium chloride, compared with EGTA) is listed as “increased”. Further, in test [2], the “Calmodulin Content, Membrane Fraction” value was determined as 11.4 ± 0.34 μg/mg protein. Further, the “stable breakdown products of fodrin (140-150 kDa)” value in test [7] is “bands of the breakdown products appeared”.

For the molecule `COc1ccc(Cn2nc(CCN3CCN(c4cccc(Cl)c4C)CC3)c3cc(OC)c(OC)cc32)cc1OC` [compound A], in test [3] (setting [9]), the “Calmodulin Content, Cytoplasm Fraction” value was 1.3 ± 0.08 μg/mg protein and the “Calmodulin Content, Membrane Fraction” value came out at 1.4 ± 0.05 μg/mg protein. Besides, the “increase in the calmodulin content in the membrane fraction / translocation of calmodulin after cerebral ischemia” value in test [3] was “significantly suppressed; also recorded: suppress”. Also, the “change in calmodulin content / localization caused by calcium ion” value in test [2] (10 μM compound A, 1 mM calcium chloride, in vitro) was “significantly suppressed”. Further, in test [2], the “effect on the behavior of calmodulin in the presence of EGTA” value was “no effect”; the “Calmodulin Content, Soluble Fraction” value was found to be 1.75 ± 0.52 μg/mg protein; the “Calmodulin Content, Membrane Fraction” value is listed as 7.1 ± 0.50 μg/mg protein. In test [4], the negative-log IC50 (pIC50) is 5.41 and the selectivity for calmodulin entry was “high selectivity for calmodulin”. Also, the “fodrin breakdown products due to cerebral ischemia” value in test [5] was “suppress”. Besides, in test [6], the “Hippocampal Neuronal Cell Density” value is recorded as 98 ± 22.0 /mm and the “protective effect on neuronal cells / suppression of neuronal cell death” value was “a protective effect on neuronal cells was clearly observed; also recorded: suppress neuronal cell death”.

`O=C(O)CN(CCOCCOCCN(CC(=O)O)CC(=O)O)CC(=O)O` [EGTA, ethylenebis(oxyethylenenitrylo)tetraacetic acid, reference compound]: in test [2], the “Calmodulin Content, Soluble Fraction” value is 12.3 ± 0.77 μg/mg protein and the “Calmodulin Content, Membrane Fraction” value amounted to 7.6 ± 0.40 μg/mg protein. Moreover, the “stable breakdown products of fodrin (140-150 kDa)” value in test [7] was “little observed”.

Turning to `CN1CCN(CCCN2c3ccccc3Sc3ccc(C(F)(F)F)cc32)CC1` [trifluoropelazine], the breakdown of fodrin result in test [8] is given as “suppressed”.
